{
  "source": "patent US5840752A",
  "about": "“Reduction of hair growth” (priority 1996, dated 1998)",
  "key": {"[1]": {"system": "hair growth of hamster flank organs", "assay": "Golden Syrian hamster assay (flank organ hair mass)", "type": "in vivo", "settings": "topical, thirteen applications; for Hair Mass (mg) ± SEM, Treated: 10 μl once a day; for % Reduction (of hair growth): vs vehicle treated side", "text": "Male intact Golden Syrian hamsters are considered acceptable models for human beard hair growth in that they display oval shaped flank organs, one on each side, each about 8 mm. in major diameter, which grow thick black and coarse hair similar to human beard hair. These organs produce hair in response to androgens in the hamster. To evaluate the effectiveness of a composition including an inhibitor of a cholesterol synthetic pathway enzyme, the flank organs of each of a group of hamsters are depilated by applying a thioglycolate based chemical depilatory (Surgex) and/or shaved. To one organ of each animal 10 μl. of vehicle alone once a day is applied, while to the other organ of each animal an equal amount of vehicle containing an inhibitor of a cholesterol synthetic pathway enzyme is applied. After thirteen applications (one application per day for five days a week), the flank organs are shaved and the amount of recovered hair (hair mass) from each is weighed. Percent-reduction of hair growth is calculated by subtracting the hair mass (mg) value of the test compound treated side from the hair mass value of the vehicle treated side; the delta value obtained is then divided by the hair mass value of the vehicle treated side, and the resultant number is multiplied by 100.\nThe above-described assay will be referred to herein as the \"Golden Syrian hamster\" assay."}, "HMG CoA reductase": {"system": "HMG CoA reductase", "assay": "HMGCoA reductase assay in extracts of hair follicles from hamster flank organ", "type": "biochemical", "settings": "tested at 14 μM, 1 hour incubation"}, "[2]": {"settings": "dose 10%, Vehicle A (40% acetone, 40% dipropylene glycol, 20% dimethyl sulfoxide)"}, "[3]": {"settings": "dose 10%, Vehicle C (85% dimethyl sulfoxide, 10% benzyl alcohol, 5% NMP)"}, "[4]": {"settings": "dose 5%, Vehicle C (85% dimethyl sulfoxide, 10% benzyl alcohol, 5% NMP)"}, "[5]": {"settings": "dose 5%, Vehicle B (100% dimethyl sulfoxide)"}},
  "data": [
    {"smiles": "CCC(C)(C)C(=O)O[C@H]1C[C@@H](C)C=C2C=C[C@H](C)[C@H](CC[C@@H]3C[C@@H](O)CC(=O)O3)[C@H]21", "note": "(relative stereo) [Simivistatin, 1S-[1α,3α,7β,8β(2S*,4S*),8aβ]]-1,2,3,7,8,8a-hexahydro-3,7-dimethyl-8-[2-tetrahydro-4-hydroxy-6-oxo-2H-pyran-2-yl)ethyl]-1-napthalenyl-2,2-dimethyl-butanoic acid]", "values": [
      {"measurement": "Hair Mass (mg) ± SEM, Treated", "setting": "[1]; [2]", "result": "0.60 ± 0.11", "unit": "mg"},
      {"measurement": "% Reduction (of hair growth)", "setting": "[1]; [2]", "result": "61 ± 7", "unit": "%"},
      {"measurement": "inhibition of HMG CoA reductase activity", "setting": "HMG CoA reductase", "result": 100, "unit": "%"}
    ]},
    {"smiles": "CC(C)CCC[C@@H](C)[C@H]1CC[C@H]2[C@@H]3C(=O)C=C4C[C@@H](O)CC[C@]4(C)[C@H]3CC[C@]12C", "note": "[7-Ketocholesterol, 5-cholesten-3β-Ol-7-one]", "values": [
      {"measurement": "Hair Mass (mg) ± SEM, Treated", "setting": "[1]; [3]", "result": "1.01 ± 0.1", "unit": "mg"},
      {"measurement": "% Reduction (of hair growth)", "setting": "[1]; [3]", "result": "54 ± 7", "unit": "%"}
    ]},
    {"smiles": "C[C@H](CCCC(C)(C)O)[C@H]1CC[C@H]2[C@@H]3CC=C4C[C@@H](O)CC[C@]4(C)[C@H]3CC[C@]12C", "note": "[25-Hydroxycholesterol, 25-hydroxycholesterol]", "values": [
      {"measurement": "Hair Mass (mg) ± SEM, Treated", "setting": "[1]; [4]", "result": "1.04 ± 0.10", "unit": "mg"},
      {"measurement": "% Reduction (of hair growth)", "setting": "[1]; [4]", "result": "17 ± 9", "unit": "%"}
    ]},
    {"smiles": "CC[C@H](C)C(=O)O[C@H]1C[C@@H](C)C=C2C=C[C@H](C)[C@H](CC[C@@H]3C[C@@H](O)CC(=O)O3)[C@H]21", "note": "[Lovastatin, 1S-[1S-[1α(R*),3α,7β,8β(2S*,4S*),8αβ]]-1,2,3,7,8,8a-hexahydro-3,7-dimethyl-8-[2-(tetrahydro-4-hydroxy-6-oxo-2H-pyran-2-yl)ethyl]-1-naphthalenyl 2-methylbutanoate]", "values": [
      {"measurement": "Hair Mass (mg) ± SEM, Treated", "setting": "[1]; [2]", "result": "0.81 ± 0.13", "unit": "mg"},
      {"measurement": "% Reduction (of hair growth)", "setting": "[1]; [2]", "result": "63±4", "unit": "%"}
    ]},
    {"smiles": "CC[C@H](C)C(=O)O[C@H]1CCC=C2C=C[C@H](C)[C@H](CC[C@@H]3C[C@@H](O)CC(=O)O3)[C@H]21", "note": "[Mevastatin, mevastatin]", "values": [
      {"measurement": "Hair Mass (mg) ± SEM, Treated", "setting": "[1]; [5]", "result": "1.09 ± 0.07", "unit": "mg"},
      {"measurement": "% Reduction (of hair growth)", "setting": "[1]; [5]", "result": "19 ± 7", "unit": "%"}
    ]}
  ]
}
